Experimental data reported in PubChem BioAssay AID330 (DTP/NCI, 2004).
Where “and” joins values, the source holds several entries; their conditions need not be identical. Equal values may be shown once. Toxic doses and inconclusive results are not listed.

Tested on: P388 leukemia ip, CD2F1 mice, survival T/C
Test: NCI In Vivo Anticancer Drug Screen. Data for tumor model P388 Leukemia (intraperitoneal) in CD2F1 (CDF1) mice
Conditions: endpoint: median survival time, higher = longer survival
Method in brief: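 Mice carrying the transplanted tumor received test compound or vehicle. Survival was recorded in each group, and the value is the treated-group measurement divided by that of the vehicle-treated control group.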

[1] = dose: 60.0 mg/kg/injection, schedule: Q01DX005 (ip), vehicle: saline with Tween-80
[2] = dose: 120.0 mg/kg/injection, schedule: Q01DX005 (ip), vehicle: saline with Tween-80
[3] = dose: 240.0 mg/kg/injection, schedule: Q01DX005 (ip), vehicle: saline with Tween-80
[4] = dose: 50.0 mg/kg/injection, schedule: Q01DX009 (ip), vehicle: Klucel (hydroxypropylcellulose) (HPC)
[5] = dose: 100.0 mg/kg/injection, schedule: Q01DX009 (ip), vehicle: Klucel (hydroxypropylcellulose) (HPC)
[6] = dose: 200.0 mg/kg/injection, schedule: Q01DX009 (ip), vehicle: Klucel (hydroxypropylcellulose) (HPC)
[7] = dose: 100.0 mg/kg/injection, schedule: Q01DX001 (ip), vehicle: saline with Tween-80
[8] = dose: 200.0 mg/kg/injection, schedule: Q01DX001 (ip), vehicle: saline with Tween-80
[9] = dose: 400.0 mg/kg/injection, schedule: Q01DX001 (ip), vehicle: saline with Tween-80
[10] = dose: 25.0 mg/kg/injection, schedule: Q01DX005 (ip), vehicle: saline with Tween-80
[11] = dose: 50.0 mg/kg/injection, schedule: Q01DX005 (ip), vehicle: saline with Tween-80
[12] = dose: 25.0 mg/kg/injection, schedule: Q01DX009 (ip), vehicle: saline with Tween-80
[13] = dose: 50.0 mg/kg/injection, schedule: Q01DX009 (ip), vehicle: saline with Tween-80
[14] = dose: 25.0 mg/kg/injection, schedule: Q04DX003 (ip), vehicle: saline with Tween-80
[15] = dose: 50.0 mg/kg/injection, schedule: Q04DX003 (ip), vehicle: saline with Tween-80
[16] = dose: 25.0 mg/kg/injection, schedule: Q01DX009 (ip), vehicle: Klucel (hydroxypropylcellulose) (HPC)
[17] = dose: 100.0 mg/kg/injection, schedule: Q01DX009 (ip), vehicle: saline with Tween-80

SMILES: COC(=O)c1cc(-c2ccccc2)c2c(=O)n(-c3ccccc3)[nH]c2n1
- T/C [1]: 99 % of control
- T/C [2]: 100 % of control
- T/C [3]: 96 % of control

SMILES: Nc1nnc(CCCCCCCc2nnc(N)o2)o1
- T/C [1]: 104 % of control
- T/C [2]: 99 % of control
- T/C [3]: 105 % of control

SMILES: Nc1ccc2c(=O)[nH]cnc2c1
- T/C (dose: 12.0 mg/kg/injection, schedule: Q01DX005 (ip), vehicle: Klucel (hydroxypropylcellulose) (HPC)): 101 % of control
- T/C (dose: 25.0 mg/kg/injection, schedule: Q01DX005 (ip), vehicle: Klucel (hydroxypropylcellulose) (HPC)): 108 % of control
- T/C (dose: 50.0 mg/kg/injection, schedule: Q01DX005 (ip), vehicle: Klucel (hydroxypropylcellulose) (HPC)): 106 % of control and 116 % of control
- T/C (dose: 100.0 mg/kg/injection, schedule: Q01DX005 (ip), vehicle: Klucel (hydroxypropylcellulose) (HPC)): 104 % of control

SMILES: S=c1[nH]ccs1
- T/C (dose: 12.5 mg/kg/injection, schedule: Q01DX009 (ip), vehicle: water): 99 % of control
- T/C (dose: 25.0 mg/kg/injection, schedule: Q01DX009 (ip), vehicle: water): 99 % of control
- T/C (dose: 50.0 mg/kg/injection, schedule: Q01DX009 (ip), vehicle: water): 95 % of control

SMILES: CCCOc1ccc(-c2nc(-c3ccc([N+](=O)[O-])cc3)cs2)cc1
- T/C [4]: 113 % of control
- T/C [5]: 104 % of control
- T/C [6]: 104 % of control

SMILES: CCOC(=O)N1CCC(n2nncc2OCC)CC1
- T/C (dose: 100.0 mg/kg/injection, schedule: Q04DX002 (ip), vehicle: Klucel (hydroxypropylcellulose) (HPC)): 102 % of control
- T/C (dose: 200.0 mg/kg/injection, schedule: Q04DX002 (ip), vehicle: Klucel (hydroxypropylcellulose) (HPC)): 102 % of control
- T/C (dose: 400.0 mg/kg/injection, schedule: Q04DX002 (ip), vehicle: Klucel (hydroxypropylcellulose) (HPC)): 105 % of control

SMILES: C/C(CC(O)(c1ccccc1)c1ccccc1)=N\SC(c1ccccc1)(c1ccccc1)c1ccccc1
- T/C [7]: 106 % of control
- T/C [8]: 100 % of control
- T/C [9]: 98 % of control

SMILES: O=C(NCCCCCCCNC(=O)C12CC3CC(CC(C3)C1)C2)C12CC3CC(CC(C3)C1)C2
- T/C (dose: 12.5 mg/kg/injection, schedule: Q01DX005 (ip), vehicle: saline with Tween-80): 93 % of control
- T/C [10]: 89 % of control
- T/C [11]: 88 % of control and 89 % of control

SMILES: C/C(=N/NC(N)=S)c1ccc2ccccc2c1
- T/C (dose: 0.75 mg/kg/injection, schedule: Q01DX009 (ip), vehicle: saline with Tween-80): 109 % of control
- T/C (dose: 1.5 mg/kg/injection, schedule: Q01DX009 (ip), vehicle: saline with Tween-80): 110 % of control
- T/C (dose: 3.0 mg/kg/injection, schedule: Q01DX009 (ip), vehicle: saline with Tween-80): 108 % of control
- T/C (dose: 5.33 mg/kg/injection, schedule: Q01DX009 (ip), vehicle: saline with Tween-80): 117 % of control
- T/C (dose: 6.0 mg/kg/injection, schedule: Q01DX009 (ip), vehicle: saline with Tween-80): 121 % of control

SMILES: O=C(CCCSCCCl)Nc1c([N+](=O)[O-])cc([N+](=O)[O-])cc1S(=O)(=O)O
- T/C (dose: 3.13 mg/kg/injection, schedule: Q04DX003 (ip), vehicle: DMSO): 110 % of control
- T/C (dose: 6.25 mg/kg/injection, schedule: Q04DX003 (ip), vehicle: DMSO): 111 % of control
- T/C (dose: 50.0 mg/kg/injection, schedule: Q04DX003 (ip), vehicle: DMSO): 118 % of control
- T/C (dose: 100.0 mg/kg/injection, schedule: Q04DX003 (ip), vehicle: olive oil, sesame oil, peanut oil): 120 % of control
- T/C (dose: 150.0 mg/kg/injection, schedule: Q04DX003 (ip), vehicle: DMSO): 114 % of control

SMILES: CC(=O)OCC1OC(N(C(C)=O)c2nc(Cl)c3cc[nH]c3n2)C(OC(C)=O)C1OC(C)=O (configuration not stated)
- T/C (dose: 25.0 mg/kg/injection, schedule: Q04DX003 (ip), vehicle: other): 102 % of control
- T/C (dose: 50.0 mg/kg/injection, schedule: Q04DX003 (ip), vehicle: other): 105 % of control
- T/C (dose: 100.0 mg/kg/injection, schedule: Q04DX003 (ip), vehicle: other): 105 % of control
- T/C (dose: 200.0 mg/kg/injection, schedule: Q04DX003 (ip), vehicle: other): 104 % of control
- T/C (dose: 400.0 mg/kg/injection, schedule: Q04DX003 (ip), vehicle: other): 108 % of control

SMILES: COc1ccc(N2C(=O)C(C)SC23C(=O)Nc2ccc(C)cc23)cc1 (configuration not stated)
- T/C [1]: 109 % of control
- T/C [2]: 102 % of control
- T/C [3]: 119 % of control

SMILES: CC(=O)O[C@@H]1C(=O)[C@]2(CO)C(C(OC(=O)c3ccccc3)C3(O)CC(O)C(C)=C1C3(C)C)[C@@]1(OC(C)=O)CO[C@H]1C[C@H]2O (some centres not stated)
- T/C (dose: 0.26 mg/kg/injection, schedule: Q01DX009 (ip), vehicle: distilled water + alcohol): 108 % of control
- T/C (dose: 0.53 mg/kg/injection, schedule: Q01DX009 (ip), vehicle: distilled water + alcohol): 106 % of control
- T/C (dose: 1.07 mg/kg/injection, schedule: Q01DX009 (ip), vehicle: distilled water + alcohol): 106 % of control
- T/C (dose: 2.15 mg/kg/injection, schedule: Q01DX009 (ip), vehicle: distilled water + alcohol): 105 % of control
- T/C (dose: 4.3 mg/kg/injection, schedule: Q01DX009 (ip), vehicle: distilled water + alcohol): 108 % of control

SMILES: O=C(CBr)N1c2ccccc2Sc2ccc3ccccc3c21
- T/C [12]: 110 % of control and 120 % of control
- T/C [13]: 122 % of control

SMILES: CCN(CC)CCOc1ccccc1C(C)=O
- T/C [10]: 93 % of control
- T/C [11]: 99 % of control

SMILES: S=C1CC2CCCC(C2)N1 (configuration not stated)
- T/C (dose: 1.87 mg/kg/injection, schedule: Q01DX005 (ip), vehicle: Klucel (hydroxypropylcellulose) (HPC)): 95 % of control
- T/C (dose: 3.75 mg/kg/injection, schedule: Q01DX005 (ip), vehicle: Klucel (hydroxypropylcellulose) (HPC)): 100 % of control
- T/C (dose: 7.5 mg/kg/injection, schedule: Q01DX005 (ip), vehicle: Klucel (hydroxypropylcellulose) (HPC)): 101 % of control and 94 % of control

SMILES: COc1cccc2c1c(=O)c1cc([N+](=O)[O-])ccc1n2C
- T/C [7]: 100 % of control
- T/C [8]: 97 % of control
- T/C [9]: 86 % of control

SMILES: COc1cc(C=Nc2cccc(Cl)c2)ccc1N(CCCl)CCCl
- T/C [14]: 172 % of control
- T/C [15]: 181 % of control

SMILES: S=c1[nH]ccn1-c1ccccc1
- T/C [16]: 99 % of control
- T/C [4]: 104 % of control
- T/C [5]: 109 % of control
- T/C [6]: 95 % of control

SMILES: COc1ccc(/C=N/NC(=O)/C(C#N)=C/c2ccc(OC)cc2)cc1
- T/C (dose: 100.0 mg/kg/injection, schedule: Q04DX003 (ip), vehicle: saline): 110 % of control
- T/C (dose: 200.0 mg/kg/injection, schedule: Q04DX003 (ip), vehicle: saline): 105 % of control
- T/C (dose: 400.0 mg/kg/injection, schedule: Q04DX003 (ip), vehicle: saline): 95 % of control

SMILES: O=C(CCCCCCCC(=O)NO)NO
- T/C [1]: 95 % of control
- T/C [2]: 100 % of control
- T/C [3]: 105 % of control

SMILES: CC(=O)NC(C(=O)O)C(C)SCc1ccccc1 (configuration not stated)
- T/C [13]: 100 % of control
- T/C [17]: 91 % of control
- T/C (dose: 200.0 mg/kg/injection, schedule: Q01DX009 (ip), vehicle: saline with Tween-80): 97 % of control

SMILES: COc1c(Cl)c(=O)oc2ccc(Cl)cc12
- T/C (dose: 6.25 mg/kg/injection, schedule: Q01DX009 (ip), vehicle: Klucel (hydroxypropylcellulose) (HPC)): 104 % of control
- T/C (dose: 12.5 mg/kg/injection, schedule: Q01DX009 (ip), vehicle: Klucel (hydroxypropylcellulose) (HPC)): 99 % of control
- T/C [16]: 97 % of control
- T/C [4]: 104 % of control

SMILES: O=N[O-].O=N[O-].[NH-]CC[NH-].[Pt+2]
- T/C [12]: 95 % of control
- T/C [13]: 100 % of control
- T/C [17]: 95 % of control

SMILES: BrCC1(CBr)OCCO1
- T/C [13]: 106 % of control

SMILES: COc1cc(CNNc2ccc(NC(C)=O)cc2N)ccc1OC(C)=O
- T/C [14]: 94 % of control
- T/C [15]: 91 % of control
- T/C (dose: 100.0 mg/kg/injection, schedule: Q04DX003 (ip), vehicle: saline with Tween-80): 86 % of control

SMILES: CC1OC(OC2C(Oc3ccc4c(=O)c(-c5ccc(O)c(O)c5O)coc4c3)OC(CO)C(O)C2O)C(O)C(O)C1O (configuration not stated)
- T/C [1]: 103 % of control
- T/C [2]: 101 % of control
- T/C [3]: 103 % of control
